Experimental data as given in the supplement of paper PMC6045584.
± gives the standard deviation of the averaged measurements.

What was measured:
[1] = compound: CCN(CC)CCCCNc1ncc2cc(-c3cc(OC)cc(OC)c3)c(NC(=O)NC(C)(C)C)nc2n1; experiment: surviving fraction relative to DMSO-only wells; higher = less growth inhibition; conditions: exposure time: 5 days
How it was run: (§1)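 Inhibitors were tested at 0.5, 1, 5, 10, 50, 100, 500 and 1000 nM, applied continuously for five days beginning 24 hours after log-phase tumour cells were seeded at 250–500 per well in 384-well plates. CellTiter-Glo luminescence served as the viability measure, expressed as surviving fraction against the median of DMSO-only wells. Each line, screened three times, was kept only with replicate Pearson r >0.7 and median Z' >0.3.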

DECITABINE = compound: Nc1ncn([C@H]2C[C@H](O)[C@@H](CO)O2)c(=O)n1 [DECITABINE]; experiment: as above; conditions: exposure time: 5 days
How it was run: as §1

Row | Test System | surviving fraction ([1]; 0.5 nM) | surviving fraction ([1]; 1 nM) | surviving fraction ([1]; 5 nM) | surviving fraction ([1]; 10 nM) | surviving fraction ([1]; 50 nM) | surviving fraction ([1]; 100 nM) | surviving fraction ([1]; 500 nM) | surviving fraction ([1]; 1000 nM) | surviving fraction (DECITABINE; 0.5 nM) | surviving fraction (DECITABINE; 1 nM) | surviving fraction (DECITABINE; 5 nM) | surviving fraction (DECITABINE; 10 nM) | surviving fraction (DECITABINE; 50 nM) | surviving fraction (DECITABINE; 100 nM) | surviving fraction (DECITABINE; 500 nM) | surviving fraction (DECITABINE; 1000 nM)
1 | MDAMB436 BREAST | 0.974 ± 0.053 | 0.802 ± 0.074 | 0.912 ± 0.026 | 0.911 ± 0.041 | 0.943 ± 0.1 | 0.974 ± 0.033 | 0.911 ± 0.032 | 0.878 ± 0.032 | 1.11 ± 0.084 | 1.06 ± 0.079 | 1 ± 0.12 | 0.949 ± 0.09 | 0.927 ± 0.11 | 0.823 ± 0.064 | 0.796 ± 0.048 | 0.685 ± 0.032
2 | MDAMB453 BREAST | 0.981 ± 0.029 | 1.03 ± 0.032 | 1.05 ± 0.058 | 1.05 ± 0.043 | 1.03 ± 0.082 | 1.04 ± 0.09 | 1.07 ± 0.033 | 0.814 ± 0.053 | 1.04 ± 0.053 | 1.04 ± 0.032 | 1.05 ± 0.093 | 1.07 ± 0.062 | 1.05 ± 0.061 | 1.02 ± 0.059 | 0.88 ± 0.015 | 0.757 ± 0.053
3 | MDAMB468 BREAST | 0.929 ± 0.043 | 0.959 ± 0.06 | 0.996 ± 0.005 | 0.985 ± 0.003 | 0.975 ± 0.055 | 1.1 ± 0.033 | 0.983 ± 0.033 | 0.956 ± 0.021 | 1.09 ± 0.083 | 1.08 ± 0.062 | 1.08 ± 0.098 | 1.03 ± 0.068 | 0.836 ± 0.04 | 0.658 ± 0.046 | 0.391 ± 0.02 | 0.341 ± 0.043
4 | MFM223 BREAST | 1.02 ± 0.04 | 1.1 ± 0.022 | 0.982 ± 0.1 | 0.823 ± 0.089 | 0.361 ± 0.029 | 0.277 ± 0.019 | 0.282 ± 0.026 | 0.258 ± 0.012 | 1.5 ± 0.59 | 1.51 ± 0.5 | 1.45 ± 0.48 | 1.47 ± 0.53 | 1.05 ± 0.061 | 1.05 ± 0.1 | 0.993 ± 0.095 | 0.799 ± 0.02
5 | MG63 BONE | 0.9463 ± 0.0067 | 0.983 ± 0.012 | 0.998 ± 0.013 | 0.965 ± 0.016 | 0.8687 ± 0.0035 | 0.771 ± 0.013 | 0.6363 ± 0.0049 | 0.641 ± 0.016 | 0.968 ± 0.02 | 0.9493 ± 0.0021 | 0.704 ± 0.009 | 0.641 ± 0.0093 | 0.432 ± 0.017 | 0.356 ± 0.008 | 0.302 ± 0.016 | 0.291 ± 0.011
6 | MHM BONE | 0.991 ± 0.026 | 0.993 ± 0.014 | 0.982 ± 0.023 | 1.001 ± 0.0095 | 0.964 ± 0.02 | 0.915 ± 0.029 | 0.7063 ± 0.007 | 0.664 ± 0.017 | 1 ± 0.029 | 1 ± 0.07 | 1.02 ± 0.04 | 1.02 ± 0.062 | 1.05 ± 0.044 | 1.02 ± 0.023 | 1.08 ± 0.042 | 1.04 ± 0.038
7 | NCIH441 LUNG | 1 ± 0.052 | 1.04 ± 0.052 | 1 ± 0.022 | 1.01 ± 0.09 | 1.04 ± 0.052 | 1.01 ± 0.059 | 1.02 ± 0.053 | 1.06 ± 0.051 | 1.11 ± 0.025 | 1.11 ± 0.058 | 1.03 ± 0.074 | 0.935 ± 0.039 | 0.71 ± 0.057 | 0.591 ± 0.12 | 0.494 ± 0.047 | 0.405 ± 0.056
8 | NOS1 BONE | 1.11 ± 0.046 | 1.19 ± 0.1 | 1.15 ± 0.094 | 1.08 ± 0.056 | 0.989 ± 0.16 | 0.965 ± 0.11 | 0.609 ± 0.046 | 0.37 ± 0.05 | 1.07 ± 0.099 | 0.872 ± 0.046 | 1.28 ± 0.055 | 0.989 ± 0.08 | 1.09 ± 0.043 | 0.992 ± 0.074 | 0.977 ± 0.22 | 0.816 ± 0.031
9 | NY BONE | 0.932 ± 0.031 | 0.942 ± 0.013 | 0.964 ± 0.015 | 1 ± 0.029 | 0.895 ± 0.019 | 0.701 ± 0.015 | 0.337 ± 0.019 | 0.31 ± 0.004 | 0.9793 ± 0.0075 | 0.955 ± 0.016 | 1 ± 0.028 | 0.939 ± 0.018 | 0.921 ± 0.021 | 0.843 ± 0.054 | 0.649 ± 0.036 | 0.479 ± 0.042
10 | OS25HAL BONE | 0.969 ± 0.0072 | 0.983 ± 0.023 | 0.973 ± 0.0036 | 1 ± 0.025 | 1 ± 0.0091 | 1 ± 0.013 | 0.979 ± 0.0085 | 1.03 ± 0.03 | 1.01 ± 0.024 | 0.9963 ± 0.0074 | 1.08 ± 0.033 | 1.07 ± 0.011 | 1.19 ± 0.034 | 1.22 ± 0.034 | 1.047 ± 0.01 | 0.921 ± 0.055
11 | OSHN BONE | 1 ± 0.016 | 1.01 ± 0.017 | 1.01 ± 0.024 | 1.03 ± 0.033 | 0.993 ± 0.023 | 1.01 ± 0.033 | 1.02 ± 0.035 | 1.04 ± 0.042 | 1.08 ± 0.015 | 1.06 ± 0.028 | 1.11 ± 0.024 | 1.07 ± 0.032 | 1.17 ± 0.03 | 1.17 ± 0.017 | 1.22 ± 0.022 | 1.112 ± 0.0035
12 | PCI30 HEADNECK | 0.906 ± 0.074 | 0.969 ± 0.09 | 0.984 ± 0.11 | 1.08 ± 0.058 | 1.04 ± 0.054 | 1.1 ± 0.1 | 0.912 ± 0.011 | 0.995 ± 0.093 | 1.04 ± 0.03 | 1.03 ± 0.052 | 0.987 ± 0.053 | 1.06 ± 0.034 | 0.963 ± 0.065 | 0.96 ± 0.079 | 0.843 ± 0.056 | 1.08 ± 0.075
13 | RDES SOFT TISSUE | 1.2 ± 0.034 | 1.35 ± 0.094 | 1.25 ± 0.088 | 1.26 ± 0.11 | 1.13 ± 0.032 | 1.25 ± 0.16 | 1.08 ± 0.29 | 1.06 ± 0.1 | 1.24 ± 0.016 | 1.14 ± 0.033 | 1.18 ± 0.15 | 0.972 ± 0.05 | 1.13 ± 0.13 | 1.29 ± 0.16 | 1.11 ± 0.16 | 1.41 ± 0.28
14 | S68 BREAST | 0.948 ± 0.29 | 1.01 ± 0.22 | 1.285 ± 0.0036 | 0.836 ± 0.1 | 1.02 ± 0.06 | 1.11 ± 0.3 | 0.864 ± 0.18 | 0.81 ± 0.22 | 0.828 ± 0.28 | 0.903 ± 0.17 | 1.15 ± 0.28 | 1.13 ± 0.24 | 0.697 ± 0.21 | 0.926 ± 0.2 | 0.541 ± 0.13 | 0.445 ± 0.013
15 | SAOS2 BONE | 1.09 ± 0.035 | 1.195 ± 0.011 | 1.2 ± 0.077 | 1.21 ± 0.042 | 1.23 ± 0.043 | 1.19 ± 0.037 | 0.995 ± 0.051 | 0.906 ± 0.054 | 1.09 ± 0.027 | 1.11 ± 0.037 | 1.1 ± 0.027 | 1.02 ± 0.042 | 1.01 ± 0.051 | 0.88 ± 0.07 | 0.742 ± 0.057 | 0.581 ± 0.12
16 | SCC003 HEADNECK | 0.927 ± 0.046 | 1.02 ± 0.055 | 1.02 ± 0.092 | 1.01 ± 0.086 | 0.981 ± 0.037 | 1.11 ± 0.091 | 1.09 ± 0.13 | 0.988 ± 0.097 | 1.03 ± 0.038 | 1.03 ± 0.032 | 1.06 ± 0.067 | 1.03 ± 0.055 | 0.922 ± 0.047 | 0.788 ± 0.032 | 0.718 ± 0.032 | 0.635 ± 0.065
17 | SCC36 HEADNECK | 1.1 ± 0.082 | 1.03 ± 0.12 | 1.1 ± 0.15 | 1.19 ± 0.028 | 0.978 ± 0.086 | 1.04 ± 0.043 | 0.83 ± 0.039 | 0.692 ± 0.082 | 1.01 ± 0.05 | 1.01 ± 0.054 | 1.05 ± 0.15 | 1.05 ± 0.09 | 1.04 ± 0.089 | 0.934 ± 0.067 | 0.709 ± 0.054 | 0.648 ± 0.074
